In patent US20060002913A1, “Use of histamine and related compounds to treat disorders affecting muscle function” (priority 2004, published 2006):

What was measured:
[1] = target: membrane bound non-mitochondrial oxidase of stimulated phagocytes (Homo sapiens, UniProt P04839); conditions: substrate of the oxidase that converts oxygen to superoxide; cited from earlier work
[2] = tested on: subjects suffering from muscle pain exacerbated by ROS and/or inflammatory cytokines; test: Inhibition of muscle pain, self-rated pain scale 1 to 10 (Example 3); type: in vivo, human; conditions: effective dose, after several weeks of treatment; groups of 10 subjects; vs placebo
Description: Subjects suffering from muscle pain exacerbated by ROS and/or inflammatory cytokines are identified. The subjects are asked to rate their pain on a scale of 1 to 10, with 1 indicating no pain or mild pain and 10 indicating severe pain. The subjects are then separated into 11 groups of 10 subjects each. […] Subjects in Group 11 are administered a placebo. After several weeks of treatment, subjects are again asked to rate their pain using the scale above.

[3] = tested on: patient with amyotrophic lateral sclerosis; conditions: orally 1 mg/day for six months
Description: A patient with amyotrophic lateral sclerosis received treatment with histamine dihydrochloride. Histamine dihydrochloride was administered orally at a dosage of 1 mg/day for a period of six months.

[4] = tested on: patient suffering from Acute Myelogenous Leukemia (AML) and fibromyalgia; conditions: given with IL-2, subcutaneously two times per day, 0.5 mg per injection, 21-day cycles repeated for 18 months with 21-day intermissions
Description: A patient, suffering from Acute Myelogenous Leukemia (AML) and fibromyalgia received treatment with histamine dihydrochloride and IL-2. Histamine dihydrochloride was administered subcutaneously two times per day at a dosage of 0.5 mg per injection for a period of 21 consecutive days.
The above 21-day cycle was repeated for 18 months with 21-day intermissions between cycles.

[5] = tested on: individuals suffering from multiple sclerosis; conditions: orally 10, 30, 50, 100, 200 and 1,000 mg; vs placebo
Description: Individuals suffering from multiple sclerosis are identified. The individuals are asked to fill out a questionnaire regarding commonly experienced symptoms experienced by MS patients as well as the rate and severity of each symptom. The individuals are then separated into 7 groups of 20 individuals. […] Individuals in Group 7 are administered a placebo. Following the course of treatment, the individuals are again asked to fill out the same questionnaire.

| Structure (SMILES) | Km [1] [µM] | muscle pain, self-rated on a scale of 1 to 10 [2] | other results |
| --- | --- | --- | --- |
| NC(=O)C1=CN([C@@H]2O[C@H](COP(=O)(O)OP(=O)(O)OC[C@H]3O[C@@H](n4cnc5c(N)ncnc54)[C@H](O)[C@@H]3O)[C@@H](O)[C@H]2O)C=CC1 [NADH] | 450 |  |  |
| Cl.Cl.NCCc1c[nH]cn1 [histamine dihydrochloride] |  | reduction in muscle pain | progression of ALS [3]: arrested; patient's symptoms (fibromyalgia muscle pain) [4]: symptoms disappeared while on treatment and returned during intermissions |
| NCCc1c[nH]cn1 [histamine] |  | reduction in muscle pain | rate and severity of symptoms associated with muscle damage (questionnaire) [5]: decrease in both the rate and severity of symptoms associated with muscle damage |
| NCCc1c[nH]cn1.O=P(O)(O)O [histamine phosphate] |  | reduction in muscle pain |  |
| NCCc1c[nH]c2ccc(O)cc12 [serotonin] |  | reduction in muscle pain |  |
| NC(=O)C1=CN([C@@H]2O[C@H](COP(=O)(O)OP(=O)(O)OC[C@H]3O[C@@H](n4cnc5c(N)ncnc54)[C@H](OP(=O)(O)O)[C@@H]3O)[C@@H](O)[C@H]2O)C=CC1 [NADPH] | 45 |  |  |
